“Also recorded” adds a separate entry of the source. Like-named read-outs stand apart in the source and are kept apart here.

For one data set, the target named is T1, hGRα (Homo sapiens, UniProt P04150).
T1 construct: expressed in transfected cells
T1 sequence (P04150 1-777): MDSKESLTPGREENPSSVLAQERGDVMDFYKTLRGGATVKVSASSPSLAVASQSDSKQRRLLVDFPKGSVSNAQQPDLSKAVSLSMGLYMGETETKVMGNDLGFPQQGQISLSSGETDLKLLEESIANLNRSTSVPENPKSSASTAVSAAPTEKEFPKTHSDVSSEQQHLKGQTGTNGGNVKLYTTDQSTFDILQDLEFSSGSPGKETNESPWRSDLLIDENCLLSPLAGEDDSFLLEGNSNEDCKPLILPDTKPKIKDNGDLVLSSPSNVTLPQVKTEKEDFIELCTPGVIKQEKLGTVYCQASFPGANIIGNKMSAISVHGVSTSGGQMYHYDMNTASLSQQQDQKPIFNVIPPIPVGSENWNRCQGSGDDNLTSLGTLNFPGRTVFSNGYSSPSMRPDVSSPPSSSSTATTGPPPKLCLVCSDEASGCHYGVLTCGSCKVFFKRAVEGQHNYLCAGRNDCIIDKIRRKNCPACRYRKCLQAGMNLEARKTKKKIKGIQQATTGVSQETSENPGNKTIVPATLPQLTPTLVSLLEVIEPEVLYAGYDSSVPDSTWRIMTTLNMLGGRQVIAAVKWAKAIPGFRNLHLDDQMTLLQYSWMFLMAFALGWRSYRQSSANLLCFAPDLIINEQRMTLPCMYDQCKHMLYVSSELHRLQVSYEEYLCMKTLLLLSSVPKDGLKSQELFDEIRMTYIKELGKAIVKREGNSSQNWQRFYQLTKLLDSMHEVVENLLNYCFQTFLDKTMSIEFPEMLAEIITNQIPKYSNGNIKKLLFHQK
The data set is described as follows: Activation of hGRα on MTV-luc. The following applies: 50 μM (FIG. 7D; 50 mM in FIG. 5 legend). It counts as cell-based. As to the method:
FIG. 5 further illustrates the broad ligand specificity of SXR. […] 6β-hydroxylated, non-reduced, 5α and 5β reduced forms of corticosterone were tested for their ability to activate GAL-SXR on tk(MH100)4-luc and hGRa on MTV-luc at […].
6β-hydroxylated, non-reduced, 5α and 5β reduced forms of corticosterone were tested for their ability to activate GAL-hSXR on tk(MH100)4-luc (lefthand group of 5 columns) and hGRα on MTV-luc at 50 μM (righthand group of 5 columns). […] In each group of columns: column 1=solvent; column 2=corticosterone; column 3=5α-tetrahydrocorticosterone; column 4=5β-tetrahydrocorticosterone; and column 5=6β-OH-corticosterone.

Data set [1] concerns the target T2, SXR (Homo sapiens, UniProt O75469).
T2 sequence (O75469 1-434): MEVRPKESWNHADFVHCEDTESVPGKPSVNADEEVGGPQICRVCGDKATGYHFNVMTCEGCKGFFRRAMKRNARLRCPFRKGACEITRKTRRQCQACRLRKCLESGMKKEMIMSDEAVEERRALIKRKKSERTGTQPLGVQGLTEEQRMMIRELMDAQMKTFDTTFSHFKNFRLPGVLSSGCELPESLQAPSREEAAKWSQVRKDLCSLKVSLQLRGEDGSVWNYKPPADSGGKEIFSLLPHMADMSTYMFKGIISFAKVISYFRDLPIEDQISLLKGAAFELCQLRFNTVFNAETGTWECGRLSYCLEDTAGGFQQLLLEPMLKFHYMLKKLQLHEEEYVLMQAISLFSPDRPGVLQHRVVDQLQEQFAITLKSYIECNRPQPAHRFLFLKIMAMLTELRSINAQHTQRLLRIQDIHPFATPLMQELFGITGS
T2 sequence (P19793 1-462 partner): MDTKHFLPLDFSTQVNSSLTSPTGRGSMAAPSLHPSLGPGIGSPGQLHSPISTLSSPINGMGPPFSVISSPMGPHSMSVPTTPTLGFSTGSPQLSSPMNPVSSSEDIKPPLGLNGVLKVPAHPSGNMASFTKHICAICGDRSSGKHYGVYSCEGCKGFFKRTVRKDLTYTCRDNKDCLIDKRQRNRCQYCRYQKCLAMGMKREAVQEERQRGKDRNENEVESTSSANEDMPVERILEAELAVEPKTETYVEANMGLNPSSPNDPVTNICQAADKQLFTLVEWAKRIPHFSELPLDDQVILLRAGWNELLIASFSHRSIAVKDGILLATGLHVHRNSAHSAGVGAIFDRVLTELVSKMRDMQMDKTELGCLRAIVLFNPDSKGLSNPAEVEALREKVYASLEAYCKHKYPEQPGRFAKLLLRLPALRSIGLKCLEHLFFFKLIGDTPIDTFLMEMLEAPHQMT
Excerpt: (§4) Thus, the protein coding region of SXR was PCR amplified and subcloned into NcoI and BamH1 sites of the vector pCDG1 (see Blumberg et al., supra). During this process the putative initiator Leu was converted to Met with a Kozak consensus sequence CCATGG.

A further data set addresses T3, endogenous PXR (Rattus norvegicus, UniProt Q9R1A7).
T3 sequence (Q9R1A7 1-431): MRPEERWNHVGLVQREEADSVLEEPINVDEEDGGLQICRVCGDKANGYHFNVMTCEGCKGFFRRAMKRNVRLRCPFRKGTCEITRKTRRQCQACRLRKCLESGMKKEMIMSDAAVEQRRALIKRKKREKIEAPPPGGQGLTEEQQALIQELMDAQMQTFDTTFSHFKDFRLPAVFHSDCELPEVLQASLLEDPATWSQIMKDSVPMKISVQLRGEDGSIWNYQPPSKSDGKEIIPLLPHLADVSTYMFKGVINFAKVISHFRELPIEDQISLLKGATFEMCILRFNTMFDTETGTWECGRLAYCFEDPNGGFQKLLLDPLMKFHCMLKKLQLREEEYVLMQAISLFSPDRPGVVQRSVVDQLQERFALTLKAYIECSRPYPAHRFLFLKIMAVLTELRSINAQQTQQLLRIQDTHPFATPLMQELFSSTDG
To be noted: hepatocytes. As to the method:
(§1) The PCR-amplified sequences and target mutagenesis were confirmed by DNA sequencing.
(§2) All compounds were purchased from Sigma.
(§3) A panel of natural and synthetic steroid and nonsteroid compounds were tested for their ability to activate SXR and/or PXR in transfection-based assays using primary rat hepatocytes as recipient cells and the cellular promoters of the rat CYP3A23 gene or the human CYP3A4 gene as reporters.

Data set [2] addresses T2, SXR. The data set is described as follows: Transfection-based reporter assay in CV-1 cells, GAL4-SXR or full-length SXR. More on the design: Activation of SXR response elements (DR-3, DR-4, DR-5) by full-length SXR: dose or concentration left out as unconfirmed. The following applies: for Activation of SXR in transfection-based assays: GAL4-SXR LBD chimera or full-length SXR, CV-1 cells, steroids at high doses, up to 50 mM [sic]; for Activation of SXR response elements (DR-3, DR-4, DR-5) by full-length SXR: cotransfection, panel of steroids as printed (FIG. 4); for Activation of human SXR by compounds known to induce CYP3A4: 50 μM, tamoxifen 5 μM (FIG. 7A).
Excerpt: as §4

For data set [3], the target named is T4, SXR (Homo sapiens, UniProt O75469).
T4 sequence (O75469 1-434): T2 sequence (O75469 1-434)
The protocol: as §1, §2, §3
This is another data set of the same source.

In the next data set the test system is CYP3A11 gene. To be noted: single dose 24 h before sacrifice. The protocol:
The animals were allowed free access to food and water at all times. […] When necessary, mice were treated with a single intraperitoneal injection of DEX (50 mg/kg), PCN (40 mg/kg), or CTZ (50 mg/kg).
To detect specific transcripts, [^32P]-cDNA probes labeled by Random Primer Labeling Kit (Boringher) were hybridized to the membranes. The probe used to detect transgene contains both the SXR cDNA and the SV40 sequences. […] The filters were subsequently stripped and rehybridized with a murine glyceraldehyde-3-phosphate dehydrogenase (GAPDH) cDNA probe for RNA loading normalization.
Tissues were harvested 24 h later and subjected to Northern blot analysis.

For `C[C@]12CCC(O)C[C@H]1CC[C@@H]1[C@@H]2[C@@H](O)C[C@]2(C)[C@@H](C(=O)CO)CC[C@@H]12` (stereo partly drawn) [5β, 5β-tetrahydrocorticosterone], the “Activation of hGRα on MTV-luc by corticosterone derivatives” value (“Activation of hGRα on MTV-luc” below) on hGRα was “completely inactive”. In addition, the “Activation of GAL-SXR on tk(MH100)4-luc by corticosterone derivatives” value on SXR [1] is given as “effective SXR activators”.

As for `Cc1ccc2cc3c(ccc4ccccc43)c3c2c1CC3` [3MC, 3-methylcholanthrene], the “Activation of CYP3A23 promoter reporter in the absence of SXR” value (“Activation … in the absence of SXR” for short) on endogenous PXR is reported as “fail to activate or behave as poor activators”.

Take `C[C@]12CCC(=O)C=C1CC[C@@H]1[C@@H]2[C@@H](O)C[C@]2(C=O)[C@@H](C(=O)CO)CC[C@@H]12` [aldosterone]: on SXR [2], the “Activation of SXR in transfection-based assays” value was “inactive” and the “Activation of SXR response elements (DR-3, DR-4, DR-5) by full-length SXR” value (“Activation of SXR response elements” for short) is “little response”.

Turning to `O=c1oc2cc(O)ccc2c2oc3cc(O)ccc3c12` [coumestrol], the “Activation of human SXR by compounds known to induce CYP3A4” value (shortened to “Activation of human SXR”) on SXR [2] is recorded as “most potent activators”.

As for `CCCCC/C=C/C=C1/C(=O)C=C[C@@H]1C/C=C\CCCC(=O)O` [15d-PGJ2], on SXR [3], the “Activation of CYP3A23 promoter reporter by PPARγ ligands in the presence of SXR” value is given as “fail to activate”.

For `C[C@]12CCC(=O)C=C1CC[C@@H]1[C@@H]2C(=O)C[C@@]2(C)[C@H]1CC[C@]2(O)C(=O)CO` [cortisone], the “Activation of SXR response elements” value on SXR [2] is “intermediate activators; also recorded: intermediate group”.

In the case of `CCC1(c2ccccc2)C(=O)NC(=O)NC1=O` [phenobarbital], the “Activation … in the absence of SXR” value at endogenous PXR is given as “fail to activate or behave as poor activators”. In addition, at SXR [3], the “Induction of CYP3A23 promoter reporter with co-transfection of SXR” value was “significant induction”.

`CC(=O)[C@H]1CC[C@H]2[C@@H]3CCC4=CC(=O)CC[C@]4(C)[C@H]3CC[C@]12C` [progesterone]: the “Activation … in the absence of SXR” value at endogenous PXR was “fail to activate or behave as poor activators”.

In the case of `C[C@]12CCC(=O)C=C1CC[C@@H]1[C@@H]2[C@@H](O)C[C@@]2(C)[C@H]1CC[C@]2(O)C(=O)CO` [cortisol], on SXR [2], the “Activation of SXR response elements” value is given as “little response”.

As for `C[C@]12C[C@H](O)[C@H]3[C@@H](C[C@@H](O)C4=CC(=O)CC[C@@]43C)[C@@H]1CC[C@@H]2C(=O)CO` [6β-hydroxy corticosterone], the “Activation of hGRα on MTV-luc” value on hGRα is recorded as “slightly active”.

Take `CC(=O)S[C@@H]1CC2=CC(=O)CC[C@]2(C)[C@H]2CC[C@@]3(C)[C@@H](CC[C@@]34CCC(=O)O4)[C@H]12` [spironolactone]: the “Activation of human SXR” value on SXR [1] is on record as “activate”.

As for `CC(=O)[C@H]1CC[C@H]2[C@@H]3CC=C4C[C@@H](O)CC[C@]4(C)[C@H]3CC[C@]12C` [pregnenolone], the “Activation of SXR response elements” value at SXR [2] was “among the best activators”. Moreover, on endogenous PXR, the “Activation … in the absence of SXR” value is reported as “fail to activate or behave as poor activators”. Moreover, the “Induction of CYP3A23 promoter reporter with co-transfection of SXR” value on SXR [3] is “significant induction”.

Regarding `Oc1ccc([C@H]2COc3cc(O)ccc3C2)cc1` [equol], at SXR [2], the “Activation of human SXR” value is given as “activate”.

For `O=c1c(-c2ccc(O)cc2)coc2cc(O)cc(O)c12` [genistein], at SXR [2], the “Activation of human SXR” value is recorded as “activate”.

With `Clc1ccccc1C(c1ccccc1)(c1ccccc1)n1ccnc1` [CTZ, clotrimazole], in the data set with CYP3A11 gene (RIF 5 mg/kg, BRL 20 mg/kg, troglitazone and ciglitazone 150 mg/kg by gavage, CTZ 50 mg/kg, PCN 40 mg/kg i.p.), the “Induction of liver CYP3A11 expression in Alb-SXR transgenic mice” value is listed as “higher level”. In addition, the “Induction of liver CYP3A11 expression in wild type / nontransgenic mice” value in the data set on CYP3A11 gene (same doses as in transgenic mice) was “moderate level”. Also, at SXR [3], the “Activation of CYP3A23 promoter reporter with mutated DR-3 element (DR3/M1, DR3/M2)” value is “abolished” and the “Inducibility of CYP3A23 promoter reporter with DR-3 replaced by IR-6 element (DR3/IR6)” value is “rescueS the inducibility”.

On to `CC/C(=C(/CC)c1ccc(O)cc1)c1ccc(O)cc1` [DES, diethylstilbestrol], for which, on SXR [2], the “Activation of human SXR” value was “most potent activators”.

Turning to `C[C@]12CC[C@@H](O)C[C@@H]1CC[C@@H]1[C@@H]2[C@@H](O)C[C@]2(C)[C@@H](C(=O)CO)CC[C@@H]12` [5α, 5α-tetrahydrocorticosterone], the “Activation of hGRα on MTV-luc” value on hGRα is recorded as “slightly active”. For the same compound, the “Activation of GAL-SXR on tk(MH100)4-luc by corticosterone derivatives” value at SXR [1] was “effective SXR activators”.

Consider `C[C@]12CCC(=O)C[C@@H]1CC[C@@H]1[C@@H]2CC[C@]2(C)[C@@H](O)CC[C@@H]12` [dihydrotestosterone], for which, at SXR [1], the “Activation of SXR in transfection-based assays” value is recorded as “remarkably effective activators”; the “Activation of SXR response elements” value is given as “among the best activators”; the “Activation of human SXR” value is recorded as “activate”.

In the case of estrogen, on SXR [2], the “Activation of SXR in transfection-based assays” value is listed as “activated”.

On to `C[C@]12C[C@H](O)[C@H]3[C@@H](CCC4=CC(=O)CC[C@@]43C)[C@@H]1CC[C@@H]2C(=O)CO` [corticosterone], for which, on SXR [2], the “Activation of human SXR” value is given as “most potent activators”; the “Activation of SXR in transfection-based assays” value is “most potent and efficacious activator; also recorded: activated”; the “Activation of SXR response elements” value was “among the best activators”.

The values are drawn from patent US6911537B2, “Xenobiotic compound modulated expression systems and uses therefor” (The Salk Institute for Biological Studies, priority 1998, dated 2005).
